# Tests used:
# [1] = target: T1, recombinant HIV-1 RT enzyme (p66/51 dimer) (Human immunodeficiency virus type 1 group M subtype B, UniProt P04585); assay: RT inhibition assay, incorporation of [32P]GTP into poly(rC)/oligo(dG); format: biochemical
# T1 construct: recombinant HIV-1 RT enzyme (p66/51 dimer)
# Procedure: RT Inhibition Assay. Analysis of the effects of the compounds on recombinant HIV-1 RT enzyme (p66/51 dimer) was performed as previously described. See, Buckheit, R. W. J.; Fliakas-Boltz, V.; Decker, W. D.; Robertson, J. L.; Stup, T. L.; Pyle, C. […] Antiviral Res. 1995, 26, 117-132, the disclosure of which is incorporated herein by reference. Briefly, inhibition of purified recombinant reverse transcriptase enzyme was measured by the incorporation of [^32P]GTP into poly(rC)/oligo(dG) (rCdG) homopolymer template primers.
# [2] = Cytotoxicity in mock-infected CEM-SS cells; format: cell-based; conditions: human, uninfected (mock-infected) CEM-SS cells
# Procedure: In Vitro Antiviral Assays. Evaluation of the antiviral activity of compounds against HIV-1RF infection in CEM-SS cells was performed using the MTS cytoprotection assay as previously described. See, Rice, W. G.; Bader, J. P. Discovery and in Vitro Development of AIDS Antiviral Drugs as Biopharmaceuticals. Adv. Pharmacol. (San Diego) 1995, 6, 389-438, the disclosure of which is incorporated herein by reference. […] See, Pauwels, R.; Balzarini, J.; Baba, M.; Snoeck, R.; Schols, […].; De […]. Rapid and Automated Tetrazolium-based Colorimetric Assay for Detection of Anti-HIV Compounds. J. Virol. Methods 1988, 20, 309-321, the disclosure of which is incorporated herein by reference.
# [3] = In vitro hydrolytic stability study in rat plasma; format: in vitro ADME; conditions: for Rat Plasma tp1/2 (min ± SD): rat plasma in vitro, half-life; for hydrolysis in rat plasma: 37° C.
# Procedure: NMR spectra were obtained at 300 MHz (^1H) and 75 MHz (^13C) in CDCl3 using CHCl3 as internal standard. Flash chromatography was performed with 230-400 mesh silica gel. […] Melting points are uncorrected. Unless otherwise stated, chemicals and solvents were of reagent grade and used as obtained from commercial sources without further purification. Tetrahydrofuran (THF) was freshly distilled from sodium/benzophenone ketyl radical prior to use. Dichloromethane was freshly distilled from calcium hydride prior to use. Lyophilized rat plasma (lot 052K7609) was obtained from Sigma Chemical Co., St. Louis, Mo. All yields given refer to isolated yields.
# In vitro Hydrolytic Stability Study in Rat Plasma. […] See, Silvestri, M. A.; Nagarajan, M.; De Clercq, E.; Pannecouque, C.; Cushman, M. Design, Synthesis, Anti-HIV Activities, and Metabolic Stabilities of Alkenyldiarylmethane (ADAM) Non-nucleoside Reverse Transcriptase Inhibitors. J. Med. Chem. 2004, 47, 3149-3162, the disclosure of which is incorporated herein by reference.
# HIV-1RF = assay: MTS cytoprotection assay, HIV-1RF infection in CEM-SS cells; format: cell-based; conditions: Human immunodeficiency virus 1; HIV-1RF in CEM-SS cells; read-out: EC50 HIV-1RF (inhibition of cytopathicity)
# Procedure: In Vitro Antiviral Assays. Evaluation of the antiviral activity of compounds against HIV-1RF infection in CEM-SS cells was performed using the MTS cytoprotection assay as previously described. See, Rice, W. G.; Bader, J. P. Discovery and in Vitro Development of AIDS Antiviral Drugs as Biopharmaceuticals. Adv. Pharmacol. (San Diego) 1995, 6, 389-438, the disclosure of which is incorporated herein by reference. […] See, Pauwels, R.; Balzarini, J.; Baba, M.; Snoeck, R.; Schols, D.; Herdewijn, P.; Desmyter, J.; De Clercq, E. Rapid and Automated Tetrazolium-based Colorimetric Assay for Detection of Anti-HIV Compounds. J. Virol. Methods 1988, 20, 309-321, the disclosure of which is incorporated herein by reference.
# [4] = Cytotoxicity in mock-infected MT-4 cells; format: cell-based; conditions: human, uninfected (mock-infected) MT-4 cells
# HIV-2 strain (ROD) = assay: MTT assay, HIV-2 strain (ROD) in MT-4 cells; format: cell-based; conditions: Human immunodeficiency virus 2, MT4; HIV-2ROD in MT-4 cells; read-out: EC50 HIV-2-ROD (inhibition of cytopathicity)
# HIV-1 strain IIIB = assay: MTT assay, HIV-1 strain IIIB in MT-4 cells; format: cell-based; conditions: Human immunodeficiency virus 1, MT4; HIV-1IIIB in MT-4 cells; read-out: EC50 HIV-1IIIB (inhibition of cytopathicity)
Structure (SMILES),IC50 [1] [µM],CC50 [2] [µM],Rat Plasma tp1/2 (min ± SD) [3] [min],EC50 (HIV-1RF) [µM],hydrolysis in rat plasma ([3]; after three days),CC50 [4] [µM],EC50 (HIV-2 strain (ROD)) [µM],EC50 (HIV-1 strain IIIB) [µM],hydrolysis in rat plasma ([3]; after 1 day)
"COC(=O)CCC/C=C(\c1cc(C)c(OC)c(C(=O)OC)c1)c1cc(Cl)ccc1OC [Compound 14, (E)-5-[1-(5-Chloro-2-methoxyphenyl)-5-methoxycarbonyl-pent-1-enyl]-2-methoxy-3-methylbenzoic Acid Methyl Ester]",> 100,8.3,0.49 ± 0.02,> 100,,,,,
"COC(=O)CCC/C=C(/c1cc(Cl)c(OC)c(C(=O)OC)c1)c1cc(Cl)ccc1OC [Compound 10, (Z)-3-Chloro-5-[1-(5-chloro-2-methoxyphenyl)-5-methoxycarbonyl-pent-1-enyl]-2-methoxybenzoic Acid Methyl Ester]",> 100,15.5,0.77 ± 0.08,> 100,,,,,
"COc1ccc(/C(=C\CCN2CCOC2=O)c2cc(F)cc(C(F)(F)F)c2)cc1OC [Compound 8, (E)-3-[4-(3-Fluoro-5-trifluoromethylphenyl)-4-(3,4-dimethoxyphenyl)-but-3-enyl]-oxazolidin-2-one]",97.8,14.5,,> 100,had not been hydrolyzed,,,,
"COC(=O)c1cc(/C(=C/CCN2CCOC2=O)c2ccc(OC)c(OC)c2)cc(C)c1OC [Compound 4, (Z)-5-[1-(3,4-Dimethoxyphenyl)-4-(2-oxo-oxazolidin-3-yl)-but-1-enyl]-2-methoxy-3-methyl-benzoic Acid Methyl Ester]",0.9,0.6,0.79 ± 0.10,> 100,,83.1,> 35.4,> 33.8,
"COC(=O)CCC/C=C(/c1cc(Cl)c(OC)c(C(=O)OC)c1)c1cc(C)c2oc(=O)n(C)c2c1 [Compound 61, (E)-3-Chloro-5-[1-(3,7-dimethyl-2-oxo-2,3-dihydro-benzoxazol-5-yl)-5-methoxycarbonyl-pent-1-enyl]-2-methoxybenzoic Acid Methyl Ester]",0.93,9.47,0.19 ± 0.01,0.53,,29.7,> 29.7,0.25,
"COC(=O)CCC/C=C(/c1cc(C)c(OC)c(C(=O)OC)c1)c1cc(C)c2oc(=O)n(C)c2c1 [Compound 60, (Z)-5-[1-(3,7-Dimethyl-2-oxo-2,3-dihydro-benzoxazol-5-yl)-5-methoxycarbonyl-pent-1-enyl]-2-methoxy-3-methylbenzoic Acid Methyl Ester]",0.16,9.39,1.74 ± 0.00,0.87,,28.2,> 28.2,1.01,
"COC(=O)CCC/C=C(\c1cc(F)cc(C(F)(F)F)c1)c1cc(C)c2onc(OC)c2c1 [Compound 19, (Z)-6-(3-Fluoro-5-trifluoromethylphenyl)-6-(3-methoxy-7-methylbenzo[d]isoxazol-5-yl)-hex-5-enoic Acid Methyl Ester]",0.9,,,,,,,,
"COc1noc2c(C)cc(/C(=C\CCN3CCOC3=O)c3cc(C)c4oc(=O)n(C)c4c3)cc12 [Compound 68, (E)-5-[1-(3-Methoxy-7-methylbenzo[d]isoxazol-5-yl)-4-(2-oxoxazolidin-3-yl)-but-1-enyl]-3,7-dimethyl-3H-benzoxazol-2-one]",3.6,,,,,,,,had not been hydrolyzed
COC(=O)c1cc(/C(=C\CCN2CCOC2=O)c2ccc(OC)c(OC)c2)cc(C)c1OC [Compound 3],1,0.49,5.76 ± 0.68,> 100,,1.05,> 1.05,> 1.05,
"COC(=O)c1cc(/C(=C\CCN2CCOC2=O)c2cc(F)cc(C(F)(F)F)c2)cc(C)c1OC [Compound 7, (E)-5-[1-(3-Fluoro-5-trifluoromethylphenyl)-4-(2-oxo-oxazolidin-3-yl)-but-1-enyl]-2-methoxy-3-methylbenzoic Acid Methyl Ester]",15.7,15,,8.3,,,,,
"COC(=O)CCC/C=C(\c1cccc(C#N)c1)c1cc(Cl)ccc1OC [Compound 18, (E)-6-(5-Chloro-2-methoxyphenyl)-6-(3-cyanophenyl)-hex-5-enoic Acid Methyl Ester]",0.78,16.3,0.42 ± 0.02,7,,≥ 45.1,> 67.6,9.11,
"COC(=O)CCC/C=C(/c1cc(C)c2onc(OC)c2c1)c1cc(C)c2oc(=O)n(C)c2c1 [Compound 67, (Z)-6-(3,7-Dimethyl-2-oxo-2,3-dihydro-benzoxazol-5-yl)-6-(3-methoxy-7-methyl-benzo[d]isoxazol-5-yl)-hex-5-enoic Acid Methyl Ester]",0.25,,,,,,,,
"COC(=O)CCC/C=C(\c1cc(F)cc(C(F)(F)F)c1)c1cc(C)c(OC)c(C(=O)OC)c1 [Compound 12, (Z)-5-[1-(3-Fluoro-5-trifluoromethylphenyl)-5-methoxycarbonyl-pent-1-enyl]-2-methoxy-3-methylbenzoic Acid Methyl Ester]",> 100,> 5,,> 5,,5.7,> 5.89,> 5.51,
"COC(=O)CCC/C=C(/c1cc(C)c(OC)c(C(=O)OC)c1)c1cc(Cl)ccc1OC [Compound 11, (Z)-5-[1-(5-Chloro-2-methoxyphenyl)-5-methoxycarbonyl-pent-1-enyl]-2-methoxy-3-methylbenzoic Acid Methyl Ester]",> 100,8,0.98 ± 0.02,> 100,,,,,
"COC(=O)CCC/C=C(\c1cc(F)cc(C(F)(F)F)c1)c1cc(Cl)c(OC)c(C(=O)OC)c1 [Compound 13, (E)-3-Chloro-5-[1-(3-fluoro-5-trifluoromethylphenyl)-5-methoxycarbonyl-pent-1-enyl]-2-methoxy-benzoic Acid Methyl Ester]",> 100,16.1,,> 100,,,,,
"COc1ccc(/C(=C\CCN2CCOC2=O)c2cc(F)ccc2C(F)(F)F)cc1OC [Compound 9, (E)-3-[4-(5-Fluoro-2-trifluoromethylphenyl)-4-(3,4-dimethoxyphenyl)-but-3-enyl]-oxazolidin-2-one]",> 100,26.7,,> 100,had not been hydrolyzed,,,,
"COC(=O)CCC/C=C(/c1cc(C)c2on(C)c(=O)c2c1)c1cc(Cl)ccc1OC [Compound 21, (Z)-6-(5-Chloro-2-methoxyphenyl)-6-(2,3-dihydro-2,7-dimethyl-3-oxo-benzo[d]isoxazol-5-yl)-hex-5-enoic Acid Methyl Ester]",8.2,13,0.48 ± 0.06,> 100,,,,,
"COC(=O)CCC/C=C(\c1cc(F)cc(C(F)(F)F)c1)c1cc(C)c2on(C)c(=O)c2c1 [Compound 22, (Z)-6-(2,3-Dihydro-2,7-dimethyl-3-oxo-benzo[d]isoxazol-5-yl)-6-(3-fluoro-5-trifluoromethylphenyl)-hex-5-enoic Acid Methyl Ester]",> 100,16.8,,> 100,,39.8,> 43.2,> 35.7,
